Two compounds from US20220175761A1, “BI-LIGAND DRUG CONJUGATE AND USE THEREOF” (COHERENT BIOPHARMA (SUZHOU), LIMITED, priority 2019, published 2022) can be followed below.

Data set [1] deals with CFPAC-1 (human pancreatic cancer cells). The data set can be described thus: Inhibition of cell line proliferation, CCK8. It counts as cell-based. The note with it: for IC50: CFPAC-1, 68-72 hours, CCK8.
Data set [2] concerns LNCaP (human prostate cancer cells). The data set can be described thus: Inhibition of cell line proliferation, CCK8. It is filed as cell-based. The note with it: LNCaP; for IC50: 68-72 hours, CCK8.
Data set [3] has as its system 22RV1 (human prostate cancer cells). The data set can be described thus: Inhibition of cell line proliferation, CCK8. It counts as cell-based. Particulars: for IC50: 22RV1, 68-72 hours, CCK8. The source says: Since different cells have different sensitivity to a cell proliferation inhibitory toxicity of the payload in a ligand conjugate, the quantitative analysis may be interfered occasionally. A series of cell lines with known expression levels of receptors of different ligands were selected and tested for the response to inhibitory effects of the cell proliferation of a ligand conjugate and a single payload. The IC50 ratio of a single payload to that of a ligand conjugate in same cell line were taken to remove such interference.
(§1) Experimental operations: LNCaP and 22RV1 cells were prepared in advance, counted, and plated in 96-well cell culture plates at a cell density of 4×10^4 cells/ml and 2.0×10^4 cells/ml, respectively (100 μl/well); negative control and blank control wells were set on each plate. After adherent cell culture overnight, the diluted samples to be tested were added at 50 μl/well. The plates were placed in an incubator at 37° C., 5% CO2 and cultured for 68-72 hours. To each well, 15 μl (10% of the liquid volume in a well) of a color developing solution from CCK8 was added; and the plates were incubated at 37° C. for 45-70 minutes and each plate was read at 450 nm on a microplate reader. The data was edited using SoftMax Pro and a 4-P fitting curve was plotted.

Data set [4] has as its system PANC-1 (human pancreatic cancer cells). The data set can be described thus: Inhibition of cell line proliferation, CCK8. It is filed as cell-based. The note with it: for IC50: PANC-1, 68-72 hours, CCK8. The procedure:
as §1, with “PANC-1” for “LNCaP”, “CFPAC-1” for “22RV1”, “cells/ml” for “cells/ml and 2.0×10^4 cells/ml, respectively”
(§2) Experimental operations: LNCaP, SK-BR-3, NCI-H226, CFPAC-1 and PANC-1 cells were prepared in advance and counted; with a culture medium (IMDM+10% FBS+1× L-Glutamine+1×P/S), the cells LNCaP, SK-BR-3 and CFPAC-1 were diluted to 4×10^4 cells/ml, NCI-H226 was diluted to 2.0×10^4 cells/ml and PANC-1 was diluted to 3.0×10^4 cells/ml; the diluted cell solution was plated in 96-well plates at 100 μl/well; and negative control and blank control wells were set on each plate. After adherent cell culture overnight, the diluted samples to be tested were added at 50 μl/well. The plates were placed in an incubator at 37° C., 5% CO2 and cultured for 68-72 hours. To each well, 15 μl (10% of the liquid volume in a well) of a color developing solution from CCK8 was added; and the plates were incubated at 37° C. for 45-70 minutes and each plate was read at 450 nm on a microplate reader. The data was edited using SoftMax Pro and a 4-P fitting curve was plotted.
as §2, with “Operations:” for “operations:”, “MDA-MB-468,” for “SK-BR-3, NCI-H226,”, “MDA-MB-468” for “SK-BR-3”, “cells/ml,” for “cells/ml, NCI-H226 was diluted to 2.0×10^4 cells/ml”

The nature of data set [5]: Body weight and clinical observation in the LU2505 study. It is filed as in vivo, BALB/c nude mice. The note with it: 0.375 mg/kg on day 1, 8, 15, D22. The text has this:
The active substance of test sample CBP-1018 is CB-20BK, which is obtained by mixing CB-20BK with auxiliary materials and then lyophilizing same.

Where “and” joins values, the source holds several entries; their conditions need not be identical. Equal entries are not always repeated. Square brackets hold non-standard residues; d marks the D form. Peptide text beside a SMILES is read from it. * marks the point of attachment. Dolaproine = CO[C@@H]([C@@H]1CCCN1)[C@@H](C)C(=O)O; Dil = CC[C@H](C)[C@H](NC)[C@@H](CC(=O)O)OC; X1 = C[C@@H](N*)[C@@H](O)c1ccccc1; NMeV = CN[C@H](C(=O)O)C(C)C

As for `CC[C@H](C)[C@@H]([C@@H](CC(=O)N1CCC[C@H]1[C@H](OC)[C@@H](C)C(=O)N[C@H](C)[C@@H](O)c1ccccc1)OC)N(C)C(=O)[C@@H](NC(=O)[C@H](C(C)C)N(C)C(=O)OCc1ccc(NC(=O)C(CCCNC(N)=O)NC(=O)[C@@H](NC(=O)CCCCCN2C(=O)CC(SC[C@H](NC(=O)[C@H](CCCCN)NC(=O)[C@H](CC(=O)O)NC(=O)[C@H](CC(=O)O)NC(=O)Cc3ccc(CNC(=O)NCCCC[C@H](NC(=O)N[C@@H](CCC(=O)O)C(=O)O)C(=O)O)cc3)C(=O)N[C@@H](CCCCNC(=O)CC[C@H](NC(=O)c3ccc(NCc4cnc5[nH]c(N)nc(=O)c5n4)cc3)C(=O)O)C(N)=O)C2=O)C(C)C)cc1)C(C)C` (stereo partly shown) [CB-20BK], the entries for the “IC50 (MMAE)/IC50 (conjugate)” value in data set [1] (CFPAC-1) and in data set [4] (PANC-1) were 0.027 and 0.020, respectively. Besides, the half-inhibitory concentration (IC50) (commonly the concentration at which inhibition is half-maximal) was found to be 557 nM in data set [1], 95.8 nM in data set [2], 502 nM in data set [3] and 126 nM in data set [4]. Besides, the “IC50 ratio (MMAE/conjugate)” value in data set [2] was found to be 0.0267; in data set [3] (22RV1) it was 0.013.
Regarding `CC[C@H](C)[C@@H]([C@@H](CC(=O)N1CCC[C@H]1[C@H](OC)[C@@H](C)C(=O)N[C@H](C)[C@@H](O)c1ccccc1)OC)N(C)C(=O)[C@@H](NC(=O)[C@@H](NC)C(C)C)C(C)C` [MMAE, monomethyl auristatin E] (H-[NMeV]V[Dil][Dolaproine]-X1), the IC50 in data set [1] was 15 nM; in data set [2], 2.55 nM and 3 nM; in data set [3], 6.48 nM; in data set [4], 2 nM. This compound also had a Weight in data set [5] of 23.5 g.
